According to patent US10537563B2, “Methods for treating ocular disease using inhibitors of CSF-1R” (NOVARTIS AG, priority 2016, dated 2020):

Experiments:
BAF/Tel-Tie1-Q2/sACP = molecular target: T1, BAF/Tel-Tie1-Q2/sACP (Homo sapiens, UniProt P35590); test: BaF3 proliferation assay; type: cell-based, murine
T1 construct: fused on or other part: P41212 (Transcription factor ETV6)

FGFR1 = FGFR1 (Homo sapiens, UniProt P11362); test: In vitro kinase assay (Table 1); type: biochemical
PKC_theta = PKC_theta (Homo sapiens, UniProt Q04759); test: In vitro kinase assay (Table 1); type: biochemical
TRKC = TRKC (Homo sapiens, UniProt Q16288); test: In vitro kinase assay (Table 1); type: biochemical
BAF/Tel-MET-3.1/sACP = molecular target: T2, BAF/Tel-MET-3.1/sACP (Homo sapiens, UniProt P08581); test: BaF3 proliferation assay; type: cell-based, murine
T2 construct: fused on or other part: P41212 (Transcription factor ETV6)

JNK2alpha2 = JNK2alpha2 (Homo sapiens, UniProt P45984); test: In vitro kinase assay (Table 1); type: biochemical
PKC_epsilon = PKC_epsilon (Homo sapiens, UniProt Q02156); test: In vitro kinase assay (Table 1); type: biochemical
BAF/Tel-AlK-Q1/sACP = molecular target: T3, BAF/Tel-AlK-Q1/sACP (Homo sapiens, UniProt Q9UM73); test: BaF3 proliferation assay; type: cell-based, murine
T3 construct: fused on or other part: P41212 (Transcription factor ETV6)

Syk = Syk (Homo sapiens, UniProt P43405); test: In vitro kinase assay (Table 1); type: biochemical
Met (h) = molecular target: T4, Met (h) (Homo sapiens, UniProt P08581); test: Kinase profiling at Invitrogen; type: biochemical
T4 construct: purchased Invitrogen

PAK1 = PAK1 (Homo sapiens, UniProt Q13153); test: In vitro kinase assay (Table 1); type: biochemical
mut_bRaf_V599E = mut_bRaf_V599E (Homo sapiens, UniProt P15056, V600E); test: In vitro kinase assay (Table 1); type: biochemical
VEGF = test: Interaction with VEGF versus CSF-1 receptor signaling; settings: at concentrations where the signaling of the CSF-1 receptor is strongly or completely inhibited
COT = COT (Homo sapiens, UniProt P41279); test: In vitro kinase assay (Table 1); type: biochemical
PHKG2 = PHKG2 (Homo sapiens, UniProt P15735); test: In vitro kinase assay (Table 1); type: biochemical

T4 sequence (P08581 25-1390): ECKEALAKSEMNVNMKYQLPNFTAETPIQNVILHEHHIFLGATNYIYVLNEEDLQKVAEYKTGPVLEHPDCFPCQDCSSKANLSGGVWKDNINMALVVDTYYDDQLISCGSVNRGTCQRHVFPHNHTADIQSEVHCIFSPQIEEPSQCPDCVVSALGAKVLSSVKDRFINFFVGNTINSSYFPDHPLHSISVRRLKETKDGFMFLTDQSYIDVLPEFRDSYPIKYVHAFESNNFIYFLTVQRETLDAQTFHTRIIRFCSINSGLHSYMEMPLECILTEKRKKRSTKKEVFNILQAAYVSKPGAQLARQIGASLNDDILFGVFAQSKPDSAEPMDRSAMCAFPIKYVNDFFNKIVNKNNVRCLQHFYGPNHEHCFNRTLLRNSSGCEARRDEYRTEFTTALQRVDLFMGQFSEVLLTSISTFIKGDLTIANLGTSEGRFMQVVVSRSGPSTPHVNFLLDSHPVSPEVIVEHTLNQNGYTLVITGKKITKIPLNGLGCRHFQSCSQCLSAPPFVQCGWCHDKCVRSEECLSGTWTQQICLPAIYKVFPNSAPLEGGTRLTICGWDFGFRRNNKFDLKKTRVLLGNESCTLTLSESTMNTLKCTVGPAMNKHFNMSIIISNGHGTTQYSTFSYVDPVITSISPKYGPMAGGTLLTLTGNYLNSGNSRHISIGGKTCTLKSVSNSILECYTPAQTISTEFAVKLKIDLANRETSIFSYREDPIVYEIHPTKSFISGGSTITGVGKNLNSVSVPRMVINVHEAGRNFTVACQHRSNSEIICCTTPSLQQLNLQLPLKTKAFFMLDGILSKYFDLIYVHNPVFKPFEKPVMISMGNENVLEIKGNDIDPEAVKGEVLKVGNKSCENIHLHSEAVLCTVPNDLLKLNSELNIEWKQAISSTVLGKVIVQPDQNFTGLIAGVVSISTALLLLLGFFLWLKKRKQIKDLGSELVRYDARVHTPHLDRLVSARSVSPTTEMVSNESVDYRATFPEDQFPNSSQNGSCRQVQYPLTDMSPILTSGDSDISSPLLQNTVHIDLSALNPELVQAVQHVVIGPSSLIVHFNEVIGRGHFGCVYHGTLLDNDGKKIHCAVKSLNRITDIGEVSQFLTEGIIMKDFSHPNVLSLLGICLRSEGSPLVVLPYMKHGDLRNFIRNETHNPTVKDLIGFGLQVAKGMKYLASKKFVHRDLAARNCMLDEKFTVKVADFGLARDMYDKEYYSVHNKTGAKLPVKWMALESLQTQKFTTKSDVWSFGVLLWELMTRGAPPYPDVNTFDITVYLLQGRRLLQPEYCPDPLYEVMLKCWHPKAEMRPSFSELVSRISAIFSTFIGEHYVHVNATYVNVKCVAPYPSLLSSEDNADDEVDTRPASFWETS
PKC_theta, sequence (Q04759 whole entry): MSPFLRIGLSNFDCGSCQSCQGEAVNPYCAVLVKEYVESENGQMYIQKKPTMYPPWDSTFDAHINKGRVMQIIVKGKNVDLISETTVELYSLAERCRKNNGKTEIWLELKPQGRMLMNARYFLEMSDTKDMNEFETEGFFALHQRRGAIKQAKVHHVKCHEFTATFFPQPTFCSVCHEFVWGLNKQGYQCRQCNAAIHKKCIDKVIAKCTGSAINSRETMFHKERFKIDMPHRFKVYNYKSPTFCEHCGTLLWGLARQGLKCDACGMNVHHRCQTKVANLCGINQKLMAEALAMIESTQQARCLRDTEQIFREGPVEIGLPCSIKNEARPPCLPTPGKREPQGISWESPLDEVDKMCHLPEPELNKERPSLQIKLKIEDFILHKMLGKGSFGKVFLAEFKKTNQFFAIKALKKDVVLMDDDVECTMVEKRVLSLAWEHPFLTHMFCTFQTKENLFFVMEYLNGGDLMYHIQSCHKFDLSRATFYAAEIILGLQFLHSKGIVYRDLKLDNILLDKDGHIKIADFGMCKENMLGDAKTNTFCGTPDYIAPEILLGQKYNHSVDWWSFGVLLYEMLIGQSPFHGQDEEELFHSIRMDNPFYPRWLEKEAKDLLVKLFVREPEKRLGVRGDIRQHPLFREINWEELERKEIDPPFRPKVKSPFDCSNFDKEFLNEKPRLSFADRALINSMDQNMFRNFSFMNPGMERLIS
FGFR1, sequence (P11362 22-822, species assumed): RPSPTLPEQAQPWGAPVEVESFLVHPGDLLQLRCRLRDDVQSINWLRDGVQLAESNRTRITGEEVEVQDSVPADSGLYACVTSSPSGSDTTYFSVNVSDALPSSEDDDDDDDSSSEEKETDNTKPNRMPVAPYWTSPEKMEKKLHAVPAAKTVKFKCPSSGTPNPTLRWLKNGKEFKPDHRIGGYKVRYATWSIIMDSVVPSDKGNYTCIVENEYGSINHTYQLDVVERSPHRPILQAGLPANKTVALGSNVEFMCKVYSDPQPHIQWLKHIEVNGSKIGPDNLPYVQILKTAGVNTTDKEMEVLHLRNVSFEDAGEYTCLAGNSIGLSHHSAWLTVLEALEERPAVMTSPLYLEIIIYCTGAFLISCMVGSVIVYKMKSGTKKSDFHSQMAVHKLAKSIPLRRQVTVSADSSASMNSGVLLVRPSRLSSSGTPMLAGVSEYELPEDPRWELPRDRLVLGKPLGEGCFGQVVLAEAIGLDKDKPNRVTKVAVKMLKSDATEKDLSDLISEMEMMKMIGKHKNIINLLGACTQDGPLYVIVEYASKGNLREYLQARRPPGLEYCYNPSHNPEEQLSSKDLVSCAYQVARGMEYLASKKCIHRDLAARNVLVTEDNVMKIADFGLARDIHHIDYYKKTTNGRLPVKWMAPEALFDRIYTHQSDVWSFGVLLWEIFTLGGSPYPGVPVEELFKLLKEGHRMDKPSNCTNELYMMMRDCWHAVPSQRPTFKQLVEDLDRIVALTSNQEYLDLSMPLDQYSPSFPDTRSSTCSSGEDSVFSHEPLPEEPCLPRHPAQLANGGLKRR
T3 sequence (Q9UM73 1116-1392 limits assumed, change not shown): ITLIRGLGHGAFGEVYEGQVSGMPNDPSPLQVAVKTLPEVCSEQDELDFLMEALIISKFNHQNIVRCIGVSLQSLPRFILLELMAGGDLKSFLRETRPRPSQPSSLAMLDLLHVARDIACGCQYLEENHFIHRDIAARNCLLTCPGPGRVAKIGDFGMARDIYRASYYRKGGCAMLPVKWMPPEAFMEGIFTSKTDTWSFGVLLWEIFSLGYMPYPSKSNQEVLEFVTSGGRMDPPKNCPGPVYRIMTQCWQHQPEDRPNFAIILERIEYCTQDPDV
PAK1, sequence (Q13153 whole entry): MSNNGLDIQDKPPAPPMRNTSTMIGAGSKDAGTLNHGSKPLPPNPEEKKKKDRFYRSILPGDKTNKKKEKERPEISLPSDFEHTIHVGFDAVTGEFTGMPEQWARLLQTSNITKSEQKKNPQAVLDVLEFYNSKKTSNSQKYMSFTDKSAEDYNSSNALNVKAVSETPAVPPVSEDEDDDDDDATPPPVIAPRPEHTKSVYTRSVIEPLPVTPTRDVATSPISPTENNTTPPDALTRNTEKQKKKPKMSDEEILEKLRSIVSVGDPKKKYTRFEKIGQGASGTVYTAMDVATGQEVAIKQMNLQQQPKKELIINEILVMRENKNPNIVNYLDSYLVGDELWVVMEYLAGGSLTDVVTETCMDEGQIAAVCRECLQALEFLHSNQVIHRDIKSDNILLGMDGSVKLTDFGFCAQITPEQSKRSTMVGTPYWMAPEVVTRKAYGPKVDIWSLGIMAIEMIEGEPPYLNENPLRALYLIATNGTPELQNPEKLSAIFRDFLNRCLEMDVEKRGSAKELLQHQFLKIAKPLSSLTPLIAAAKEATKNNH
TRKC, sequence (Q16288 32-839, species assumed): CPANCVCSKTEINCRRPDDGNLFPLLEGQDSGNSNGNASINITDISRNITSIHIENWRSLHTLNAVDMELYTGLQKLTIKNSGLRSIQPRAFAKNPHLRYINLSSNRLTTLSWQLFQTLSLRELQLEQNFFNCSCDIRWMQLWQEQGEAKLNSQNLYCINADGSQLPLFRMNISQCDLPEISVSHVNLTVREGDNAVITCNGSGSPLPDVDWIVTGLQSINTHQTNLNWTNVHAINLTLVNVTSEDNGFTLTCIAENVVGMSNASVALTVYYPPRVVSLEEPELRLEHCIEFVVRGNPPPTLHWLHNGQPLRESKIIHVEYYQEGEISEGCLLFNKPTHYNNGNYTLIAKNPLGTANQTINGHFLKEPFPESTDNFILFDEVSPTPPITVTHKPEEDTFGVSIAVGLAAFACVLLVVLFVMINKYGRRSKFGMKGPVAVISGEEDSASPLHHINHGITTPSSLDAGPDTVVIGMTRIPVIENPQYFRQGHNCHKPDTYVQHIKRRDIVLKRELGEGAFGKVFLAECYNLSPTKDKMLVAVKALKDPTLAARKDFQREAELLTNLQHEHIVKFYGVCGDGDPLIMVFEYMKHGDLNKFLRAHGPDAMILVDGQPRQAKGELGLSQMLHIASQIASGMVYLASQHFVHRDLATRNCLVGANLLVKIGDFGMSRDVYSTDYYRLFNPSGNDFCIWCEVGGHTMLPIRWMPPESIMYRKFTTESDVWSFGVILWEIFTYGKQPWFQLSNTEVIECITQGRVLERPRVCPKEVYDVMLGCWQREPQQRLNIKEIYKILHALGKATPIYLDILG
COT, sequence (P41279 whole entry): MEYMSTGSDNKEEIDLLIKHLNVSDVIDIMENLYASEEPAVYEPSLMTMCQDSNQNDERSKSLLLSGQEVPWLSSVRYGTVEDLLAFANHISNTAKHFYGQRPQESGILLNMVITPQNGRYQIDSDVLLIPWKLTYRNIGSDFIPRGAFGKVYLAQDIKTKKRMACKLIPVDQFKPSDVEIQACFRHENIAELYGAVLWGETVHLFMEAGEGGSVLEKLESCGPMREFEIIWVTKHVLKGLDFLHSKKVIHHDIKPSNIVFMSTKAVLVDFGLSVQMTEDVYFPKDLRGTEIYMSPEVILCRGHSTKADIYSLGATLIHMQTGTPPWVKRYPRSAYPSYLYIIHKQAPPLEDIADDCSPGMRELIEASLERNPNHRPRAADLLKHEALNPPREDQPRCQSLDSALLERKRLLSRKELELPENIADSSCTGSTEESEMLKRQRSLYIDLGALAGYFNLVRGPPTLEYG

In the case of `CNC(=O)c1cc(Oc2ccc3nc(NC4CCCCC4O)sc3c2)ccn1` (centres unmarked) [Compound (I)], the EC50 (BAF/Tel-Tie1-Q2/sACP) is reported as > 10 µM, the IC50 (FGFR1) is reported as > 25 µM and the IC50 (PKC_theta) is reported as > 10 µM. The IC50 (TRKC) was > 10 µM, the EC50 (BAF/Tel-MET-3.1/sACP) was > 10 µM and the IC50 (JNK2alpha2) was > 10 µM. For the same compound, the IC50 (PKC_epsilon) was > 25 µM, the EC50 (BAF/Tel-AlK-Q1/sACP) was > 10 µM and the IC50 (Syk) was > 10 µM. For the same compound, the inhibition at 0.5 µM (Met (h); read-out: % inhibition @ 0.5 μM, Met (h)) was 0%, the inhibition at 5 µM (Met (h); read-out: % inhibition @ 5 μM, Met (h)) was 4% and the inhibition at 20 µM (Met (h); read-out: % inhibition @ 20 μM, Met (h)) was 37%. The IC50 (PAK1) was > 25 µM, the IC50 (mut_bRaf_V599E) was > 25 µM and the “interaction with VEGF” value (VEGF) was “not to interact strongly”. For the same compound, the IC50 (COT) was > 25 µM and the IC50 (PHKG2) was > 10 µM.
